{
  "source": "patent US20170050966A1",
  "about": "“INHIBITING THE TRANSIENT RECEPTOR POTENTIAL A1 ION CHANNEL” (HYDRA BIOSCIENCES, INC., priority 2014, published 2017)",
  "key": {"[1]": {"assay": "Solubility of micronized Compound 2 in McIlvain's citrate-phosphate buffer", "type": "physicochemical", "settings": "aqueous buffer, thermodynamic from solid, citrate-phosphate buffer pH 2.2 to 8.64, 30 hours, read-out: Solubility of micronized formulation", "procedure": "Solubility of a micronized formulation of Compound 2 was further evaluated using McIlvain's citrate-phosphate buffer recipes (0.2M Na2HPO4 and 0.1M citric acid) from pH 2.2 to 8.64. Samples were agitated for 30 hours and sampled, centrifuged, and analyzed by UPLC."}, "[2]": {"assay": "Plasma protein binding, equilibrium dialysis", "settings": "pooled K2EDTA plasma", "procedure": "With this method, free compound is separated from protein-bound compound by dialysis across a semi-permeable membrane.\nThe protein binding was tested at a concentration of 1 μM. Pooled human, cynomolgus monkey, dog, and rat K2EDTA plasma was thawed and centrifuged at 2000×g for 10 minutes at 4° C. to remove particulates; any lipid on the top of the supernatant was also removed by aspiration. The plasma was warmed to 37° C. for 10 minutes before use. Test compounds were spiked into 2 ml plasma in a polypropylene plate to a final concentration of 1 μM. Triplicate 400 μl aliquots of spiked plasma were transferred into the Thermo RED dialysis units and dialyzed against 600 μl of PBS buffer. […] After 6 hours dialysis, triplicate 50 μl aliquots were removed from the RED plate, matrix-matched with either PBS buffer or blank plasma, as appropriate, and quenched with 4 volumes of ACN containing an internal standard. The extracted samples were then centrifuged at 2000×g for 5 minutes at 4° C. The supernatant (50 μl) was removed and diluted with 100 μl water prior to LC/MS/MS bioanalysis."}, "rTRPA1": {"molecular_target": "T1, rTRPA1 (Rattus norvegicus, UniProt Q6RI86)", "T1 construct": "expressed in transfected cells", "T1 sequence (Q6RI86 whole entry)": "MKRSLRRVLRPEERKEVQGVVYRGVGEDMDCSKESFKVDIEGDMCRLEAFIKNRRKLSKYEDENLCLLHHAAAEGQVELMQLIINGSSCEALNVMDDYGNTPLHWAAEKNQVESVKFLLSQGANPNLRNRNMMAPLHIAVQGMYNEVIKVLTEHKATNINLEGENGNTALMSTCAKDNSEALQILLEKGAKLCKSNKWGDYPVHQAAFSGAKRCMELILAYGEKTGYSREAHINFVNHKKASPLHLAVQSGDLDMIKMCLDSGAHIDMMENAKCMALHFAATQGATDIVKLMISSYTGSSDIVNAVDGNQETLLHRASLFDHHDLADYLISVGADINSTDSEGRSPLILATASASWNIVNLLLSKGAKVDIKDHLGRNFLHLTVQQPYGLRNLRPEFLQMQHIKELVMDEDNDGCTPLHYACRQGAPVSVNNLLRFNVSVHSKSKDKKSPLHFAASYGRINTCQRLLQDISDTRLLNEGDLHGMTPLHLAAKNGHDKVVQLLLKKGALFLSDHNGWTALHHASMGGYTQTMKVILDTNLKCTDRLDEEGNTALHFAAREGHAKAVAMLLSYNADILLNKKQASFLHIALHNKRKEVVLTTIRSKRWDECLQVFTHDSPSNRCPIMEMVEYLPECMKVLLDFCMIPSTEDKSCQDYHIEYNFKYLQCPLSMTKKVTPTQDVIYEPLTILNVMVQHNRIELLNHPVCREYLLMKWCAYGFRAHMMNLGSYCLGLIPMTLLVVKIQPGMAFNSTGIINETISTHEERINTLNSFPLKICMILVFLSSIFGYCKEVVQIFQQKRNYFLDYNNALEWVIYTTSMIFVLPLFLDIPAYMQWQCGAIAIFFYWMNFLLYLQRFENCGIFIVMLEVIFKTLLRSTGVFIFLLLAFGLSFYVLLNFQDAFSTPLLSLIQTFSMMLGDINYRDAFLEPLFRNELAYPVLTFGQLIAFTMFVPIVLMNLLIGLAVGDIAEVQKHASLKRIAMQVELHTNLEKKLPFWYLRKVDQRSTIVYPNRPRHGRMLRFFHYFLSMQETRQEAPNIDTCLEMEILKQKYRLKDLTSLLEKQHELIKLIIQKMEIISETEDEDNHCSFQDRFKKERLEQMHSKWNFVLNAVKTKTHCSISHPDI", "assay": "TRPA1 IC50, whole-cell patch clamp", "type": "cell-based", "settings": "rTRPA1, 10 μM AITC; read-out: IC50 Inward current"}, "dogTRPA1": {"molecular_target": "dogTRPA1 (Canis lupus familiaris, UniProt A0A8I3Q1Q7)", "sequence (A0A8I3Q1Q7 1-1118)": "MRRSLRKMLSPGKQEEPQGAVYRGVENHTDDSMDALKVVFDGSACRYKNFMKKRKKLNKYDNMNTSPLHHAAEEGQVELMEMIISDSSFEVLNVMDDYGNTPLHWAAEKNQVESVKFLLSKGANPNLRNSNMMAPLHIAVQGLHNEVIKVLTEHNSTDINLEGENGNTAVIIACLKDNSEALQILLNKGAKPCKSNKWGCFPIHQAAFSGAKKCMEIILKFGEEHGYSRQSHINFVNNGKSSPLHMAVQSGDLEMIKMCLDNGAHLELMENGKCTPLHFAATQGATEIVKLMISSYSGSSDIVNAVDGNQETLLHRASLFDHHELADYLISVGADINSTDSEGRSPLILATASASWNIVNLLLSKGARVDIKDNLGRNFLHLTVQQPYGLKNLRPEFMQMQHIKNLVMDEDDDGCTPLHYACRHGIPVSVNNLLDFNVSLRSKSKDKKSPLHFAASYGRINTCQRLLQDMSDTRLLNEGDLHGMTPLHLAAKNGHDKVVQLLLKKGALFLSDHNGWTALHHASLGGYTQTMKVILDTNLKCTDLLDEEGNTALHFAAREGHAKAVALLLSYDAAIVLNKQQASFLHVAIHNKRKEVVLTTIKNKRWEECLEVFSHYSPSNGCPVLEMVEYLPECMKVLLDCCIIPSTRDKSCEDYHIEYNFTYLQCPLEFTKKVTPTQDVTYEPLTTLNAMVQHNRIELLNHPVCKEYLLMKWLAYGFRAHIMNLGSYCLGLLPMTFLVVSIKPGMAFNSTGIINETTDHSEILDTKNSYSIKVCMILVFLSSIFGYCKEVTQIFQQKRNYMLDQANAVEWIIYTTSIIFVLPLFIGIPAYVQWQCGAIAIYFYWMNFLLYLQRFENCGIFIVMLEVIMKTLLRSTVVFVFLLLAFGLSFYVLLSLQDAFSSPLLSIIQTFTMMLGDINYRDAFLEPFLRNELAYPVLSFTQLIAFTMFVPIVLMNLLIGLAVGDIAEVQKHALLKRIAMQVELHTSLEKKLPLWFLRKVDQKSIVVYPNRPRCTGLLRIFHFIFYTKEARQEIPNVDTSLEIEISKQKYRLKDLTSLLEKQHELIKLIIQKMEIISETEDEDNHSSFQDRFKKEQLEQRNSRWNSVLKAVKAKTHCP", "assay": "TRPA1 IC50, whole-cell patch clamp", "type": "cell-based, Dog", "settings": "dogTRPA1, 10 μM AITC; read-out: IC50 Inward current", "text": "The change in IC50 block in the presence of albumin and plasma was also studied. It is assumed that the pharmacological effect of a drug correlates to unbound plasma levels, which is known as the “free drug hypothesis”. The aim of this study was to estimate the change in IC50 for block of human TRPA1 (hTRPA1) by Compound 2 in the presence of physiologically relevant concentrations of albumin and plasma (see Table 7). The human form of TRPA1 was used to assess protein binding in all species due to technical issues. The whole-cell patch clamp technique as described in del Camino, D. et al. J Neurosci 74 (2010) 30:15165 was employed to measure current through hTRPA1 upon activation by allyl isothiocyanate (AITC), the active ingredient in mustard oil, in the presence of 1% (w/v) serum albumin or 25% (v/v) plasma from various species including human plasma (hPlasma), human serum albumin (HSA), rat plasma (rPlasma), rat serum albumin (RSA), dog plasma, and sheep serum albumin (sheepSA). […]\nData for TRPA1 inhibition was obtained by this method for the indicated compounds of Formula (I), with the relevant data included in Table 14 below. All currents were recorded in whole-cell configuration using EPC-9 and EPC-10 amplifiers and Patchmaster software (HEKA). […]"}, "mTRPA1": {"molecular_target": "T2, mTRPA1 (Mus musculus, UniProt Q8BLA8)", "T2 construct": "expressed in transfected cells", "T2 sequence (Q8BLA8 whole entry)": "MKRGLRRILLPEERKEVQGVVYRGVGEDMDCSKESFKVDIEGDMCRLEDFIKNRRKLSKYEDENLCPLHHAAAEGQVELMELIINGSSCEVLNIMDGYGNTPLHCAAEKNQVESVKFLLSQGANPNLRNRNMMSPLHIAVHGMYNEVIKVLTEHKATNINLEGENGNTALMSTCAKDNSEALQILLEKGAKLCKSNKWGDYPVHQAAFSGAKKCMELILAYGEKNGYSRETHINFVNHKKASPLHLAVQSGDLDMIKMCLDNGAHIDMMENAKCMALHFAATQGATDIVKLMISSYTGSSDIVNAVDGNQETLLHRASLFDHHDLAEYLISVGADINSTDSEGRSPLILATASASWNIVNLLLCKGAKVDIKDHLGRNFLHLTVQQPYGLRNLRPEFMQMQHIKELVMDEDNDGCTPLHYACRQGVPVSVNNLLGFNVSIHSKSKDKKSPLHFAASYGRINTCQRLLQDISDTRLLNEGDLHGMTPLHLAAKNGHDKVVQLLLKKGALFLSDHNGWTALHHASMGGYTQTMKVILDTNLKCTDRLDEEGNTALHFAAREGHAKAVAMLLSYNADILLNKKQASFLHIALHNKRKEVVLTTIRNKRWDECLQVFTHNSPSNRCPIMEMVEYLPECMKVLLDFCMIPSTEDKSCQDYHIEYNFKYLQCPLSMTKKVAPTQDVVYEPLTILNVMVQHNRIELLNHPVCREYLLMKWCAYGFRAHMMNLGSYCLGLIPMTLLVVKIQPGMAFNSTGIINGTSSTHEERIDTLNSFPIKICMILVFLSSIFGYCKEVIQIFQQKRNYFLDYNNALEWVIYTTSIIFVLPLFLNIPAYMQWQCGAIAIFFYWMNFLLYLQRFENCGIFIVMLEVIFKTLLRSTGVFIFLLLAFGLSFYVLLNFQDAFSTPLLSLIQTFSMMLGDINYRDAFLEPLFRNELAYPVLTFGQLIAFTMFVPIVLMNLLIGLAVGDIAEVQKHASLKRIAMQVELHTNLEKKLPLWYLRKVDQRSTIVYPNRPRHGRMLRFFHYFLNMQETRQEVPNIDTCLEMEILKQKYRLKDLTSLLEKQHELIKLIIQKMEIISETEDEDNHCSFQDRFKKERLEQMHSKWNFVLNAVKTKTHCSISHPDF", "assay": "TRPA1 IC50, whole-cell patch clamp", "type": "cell-based", "settings": "mTRPA1, 10 μM AITC; read-out: IC50 Inward current"}, "sheepTRPA1": {"molecular_target": "sheepTRPA1 (Ovis aries, UniProt A0ACI6QTQ3)", "sequence (A0ACI6QTQ3 entry or part of it)": "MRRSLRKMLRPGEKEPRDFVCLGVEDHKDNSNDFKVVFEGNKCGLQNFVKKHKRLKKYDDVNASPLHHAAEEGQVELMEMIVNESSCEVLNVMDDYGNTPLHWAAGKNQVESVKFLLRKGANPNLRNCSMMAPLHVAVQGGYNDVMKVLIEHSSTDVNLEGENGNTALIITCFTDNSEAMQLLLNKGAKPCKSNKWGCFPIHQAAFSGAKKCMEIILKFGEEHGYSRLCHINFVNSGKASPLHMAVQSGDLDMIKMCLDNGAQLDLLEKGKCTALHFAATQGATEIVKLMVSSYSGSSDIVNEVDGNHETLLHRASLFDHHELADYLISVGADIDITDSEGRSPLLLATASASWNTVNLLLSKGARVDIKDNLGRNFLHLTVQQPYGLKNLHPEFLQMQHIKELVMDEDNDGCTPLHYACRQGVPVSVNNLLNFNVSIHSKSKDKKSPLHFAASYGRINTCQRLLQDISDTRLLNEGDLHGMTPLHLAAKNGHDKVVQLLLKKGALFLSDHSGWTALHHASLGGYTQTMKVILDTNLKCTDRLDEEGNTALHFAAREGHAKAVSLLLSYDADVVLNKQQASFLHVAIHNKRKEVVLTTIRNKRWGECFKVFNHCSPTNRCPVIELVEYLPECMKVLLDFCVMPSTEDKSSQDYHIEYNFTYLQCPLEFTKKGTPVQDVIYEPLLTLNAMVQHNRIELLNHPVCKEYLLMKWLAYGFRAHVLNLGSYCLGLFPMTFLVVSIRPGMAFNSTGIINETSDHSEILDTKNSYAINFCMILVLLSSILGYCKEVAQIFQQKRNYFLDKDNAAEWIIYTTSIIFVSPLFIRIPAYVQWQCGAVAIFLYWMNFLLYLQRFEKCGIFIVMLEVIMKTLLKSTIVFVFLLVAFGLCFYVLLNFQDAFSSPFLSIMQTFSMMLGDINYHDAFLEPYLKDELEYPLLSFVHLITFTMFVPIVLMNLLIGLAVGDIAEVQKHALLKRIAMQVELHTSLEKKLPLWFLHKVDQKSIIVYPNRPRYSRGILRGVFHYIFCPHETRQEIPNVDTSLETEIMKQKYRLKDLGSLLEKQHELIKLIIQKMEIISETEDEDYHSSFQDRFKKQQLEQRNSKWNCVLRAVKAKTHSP", "assay": "TRPA1 IC50, whole-cell patch clamp", "type": "cell-based, Sheep", "settings": "sheepTRPA1, 20 μM AITC; read-out: IC50 Inward current"}, "[3]": {"assay": "PK comparison of capsule and suspension formulations", "settings": "monkey, in vivo, po, 250 mg, monkeys", "procedure": "Another study was conducted to compare the PK parameters of capsule and suspension formulations of Compound 2. All monkeys were dosed with 250 mg Compound 2. Two groups were dosed with the capsule formulation: one fasted and one allowed food ad libitum. The animals that received the suspension formulation were dosed using a nasogastric tube and were fasted. […] When the PK profile of the capsule formulation was compared in both fasted and fed monkeys, the bioavailability of Compound 2 capsules was numerically greater in fasted monkeys."}, "[4]": {"assay": "Plasma levels in CFA cold hypersensitivity study", "type": "in vivo, rat", "text": "Table 16 summarizes the average plasma levels of Compound 2 and Compound A. Approximately dose proportional exposures of Compound 2 were observed throughout the dose range tested. Decreased plasma binding of Compound 2 indicates an improved bioavailability of Compound 2 to the subjects over Compound A."}, "[5]": {"assay": "CYP450 reaction phenotyping in human liver microsomes", "type": "in vitro ADME", "settings": "human liver microsomes with and without selective CYP450 inhibitors", "procedure": "CYP450 reaction phenotyping of Compound 2 was conducted by incubating the test article with human liver microsomes in the presence and absence of selective CYP450 inhibitors."}, "CYP2C9": {"molecular_target": "CYP2C9 (Homo sapiens, UniProt P11712)", "sequence (P11712 whole entry)": "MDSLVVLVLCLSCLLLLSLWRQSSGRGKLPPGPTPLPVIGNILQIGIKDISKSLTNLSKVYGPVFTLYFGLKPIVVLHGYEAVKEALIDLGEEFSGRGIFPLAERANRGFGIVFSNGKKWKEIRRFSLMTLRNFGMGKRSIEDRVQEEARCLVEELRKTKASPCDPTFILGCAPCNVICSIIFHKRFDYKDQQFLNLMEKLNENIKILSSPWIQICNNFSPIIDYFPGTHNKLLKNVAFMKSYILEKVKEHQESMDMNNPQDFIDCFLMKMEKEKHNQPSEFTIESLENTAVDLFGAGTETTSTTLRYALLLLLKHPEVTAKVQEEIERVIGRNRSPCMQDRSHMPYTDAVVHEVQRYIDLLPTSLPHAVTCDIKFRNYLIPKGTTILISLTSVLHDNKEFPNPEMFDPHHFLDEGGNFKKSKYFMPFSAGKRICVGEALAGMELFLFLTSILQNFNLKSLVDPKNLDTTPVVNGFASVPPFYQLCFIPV", "assay": "in vitro", "settings": "probe Diclofenac"}},
  "data": [
    {"molecule": "C[C@@H](C(=O)Nc1ccnc(-c2cnc(N3CCC[C@H]3C(F)(F)F)nc2)n1)n1cnc2c1c(=O)n(C)c(=O)n2C", "note": "[Compound 2, (S)-2-(1,3-dimethyl-2,6-dioxo-2,3-dihydro-1H-purin-7(6H)-yl)-N-(2′-((S)-2-(trifluoromethyl)pyrrolidin-1-yl)-[2,5′-bipyrimidin]-4-yl)propanamide]", "values": [
      {"measurement": "solubility at 30 h", "setting": "[1]", "result": "200 to 1300", "unit": "µg/mL"},
      {"measurement": "fraction unbound at 6 h, 1 μM", "setting": "[2]; beagle, dog", "result": 0.055},
      {"measurement": "fraction unbound at 6 h, 1 μM", "setting": "[2]; cynomolgus monkey", "result": 0.02},
      {"measurement": "IC50", "setting": "rTRPA1", "result": "22.9 ± 4.6", "unit": "nM"},
      {"measurement": "IC50", "setting": "dogTRPA1", "result": "23.5 ± 6.4", "unit": "nM"},
      {"measurement": "IC50", "setting": "mTRPA1", "result": "26.6 ± 3.3", "unit": "nM"},
      {"measurement": "IC50", "setting": "sheepTRPA1", "result": "3280 ± 640", "unit": "nM"},
      {"measurement": "bioavailability", "setting": "[3]; Capsule (fasted)", "result": 13, "unit": "%"},
      {"measurement": "bioavailability", "setting": "[3]; Capsule (fed)", "result": 10, "unit": "%"},
      {"measurement": "bioavailability", "setting": "[3]; Suspension (fasted)", "result": 7.8, "unit": "%"},
      {"measurement": "PLASMA", "setting": "[4]; 0.3 mg/kg PO", "result": "70 ± 11", "unit": "ng/mL"},
      {"measurement": "PLASMA", "setting": "[4]; 1 mg/kg PO", "result": "265 ± 56", "unit": "ng/mL"},
      {"measurement": "PLASMA", "setting": "[4]; 3 mg/kg PO", "result": "800 ± 160", "unit": "ng/mL"},
      {"measurement": "PLASMA", "setting": "[4]; 10 mg/kg PO", "result": "2780 ± 425", "unit": "ng/mL"},
      {"measurement": "CYP450 isozymes involved in in vitro metabolism", "setting": "[5]", "result": "involved mainly the CYP3A4 isozymes"},
      {"measurement": "inhibition at 10 µM", "setting": "CYP2C9", "result": 22, "unit": "%"}
    ]}
  ]
}
